Test results taken from patent publication US4593090A, “Novel nitrosourea compounds, method for preparing same, and pharmaceutical composition containing same” (Gogo Kimura, priority 1981, dated 1986).
Like-named read-outs stand apart in the source and are kept apart here.

How the values were obtained:
[1] = test system: Ehrlich acites carcinoma; assay: Growth-inhibiting effect against Ehrlich acites carcinoma; format: in vivo, male mice; conditions: Mus musculus, Ehrlich, 120 h, 5 days; for response vs control in vivo at 25 mg/kg: 25 mg/kg/day ip; for response vs control in vivo at 100 mg/kg: 100 mg/kg/day ip; for response vs control in vivo at 50 mg/kg: 50 mg/kg/day ip; for response vs control in vivo at 200 mg/kg: 200 mg/kg/day ip
Description: Ehrlich acites carcinoma (1×10^7 cells) was implantated into the abdominal cavities of a 6-membered group of male mice. Test compounds (solutions or suspensions in 1% Nikohl HCO-60) were each intraperioneally administered once a day 5 successive days to the mice 24 hrs. after the implantation. Total packed cell volumes [TPCV, namely, total packed volumes of Acites carcinoma] were determined 7 days after the implantation to calculate growth ratio of tumor [T/C%; T: packed volume of Acites carcinoma in treated groups, C: packed volume of Acites carcinoma in an untreated group]. Acitivity is represented by - when T/C% is 100-66, by + when T/C% 65-41, by ++ when T/C% 40-11, and by +++ when T/C% 10-0.

[2] = test system: Leukemia L1210; assay: Activity against Leukemia L1210, intraperitoneal, increase in life span of mice; format: in vivo, female mice (BDF1 family); conditions: for ED (maximum ILS) / ED30: Mus musculus, L1210, ip; for ED (maximum ILS): read-out: O.D. (optimum dosage); for ED30: read-out: ILS30; for Survivors after 60 days / Max. ILS % / Therapeutic ratio TR: ip; for Survivors after 60 days: 6-membered group; for Max. ILS %: 60-day observation, versus control; for Therapeutic ratio TR: O.D./ILS30
Summary of the method: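 Mice (female BDF1, 20–23 g) carrying 1×10^5 ip-implanted L1210 cells were given daily ip or oral doses for 5 days; ILS% came from mean survival over 60 days relative to controls.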

[3] = Acute toxicity (LD50, Behrens-Karber method); format: in vivo, ICR mice; conditions: ip, mortality during 30 days; for LD50 at 720 h: mouse, in vivo
Description: Test compounds, dissolved or suspended in 0.5% aqueous CMC, were each intraperitoneally administered to ICR mice in a dose of 0.1 ml per 10 g body weight. LD50 (mg/kg) value of each test compound was calculated from the mortality of mice during 30 days by the Behrens-Karber method.

[4] = ip once a day for 5 successive days, daily dosage giving maximum increase of life span
[5] = ip once a day for 5 successive days, daily dosage increasing average survival days by 30%

Compound | response vs control in vivo at 25 mg/kg ([1]; read-out: Activity) [%] | response vs control in vivo at 25 mg/kg ([1]; read-out: T/C %) [%] | response vs control in vivo at 100 mg/kg ([1]; read-out: Activity) [%] | response vs control in vivo at 100 mg/kg ([1]; read-out: T/C %) [%] | ED (maximum ILS) [2, 4] [mg/kg] | ED30 [2, 5] [mg/kg] | Survivors after 60 days [2] | Max. ILS % [2] [%] | Therapeutic ratio TR [2] | LD50 at 720 h [3] [mg/kg] | response vs control in vivo at 50 mg/kg ([1]; read-out: Activity) [%] | response vs control in vivo at 50 mg/kg ([1]; read-out: T/C %) [%] | response vs control in vivo at 200 mg/kg ([1]; read-out: Activity) [%] | response vs control in vivo at 200 mg/kg ([1]; read-out: T/C %) [%] | O.D. (optimum dosage) [2, 4] [mg/kg] | ILS30 [2, 5] [mg/kg] | LD50 [3] [mg/kg]
COCCCO[C@H]1O[C@H](CN(CC(C)C)C(=O)N(CCCl)N=O)[C@@H](O)[C@H](O)[C@H]1O [Compound 31] | 0 to 10 | 0 | 0 to 10 | 0 | 170 | 2.65 | 6/6 | > 700 | 64.2 | 505 |  |  |  |  |  |  | 
COc1cccc(CO[C@H]2O[C@H](CN(CC(C)C)C(=O)N(CCCl)N=O)[C@@H](O)[C@H](O)[C@H]2O)c1OC [Compound 52, 3-isobutyl-3-(2,3-dimethoxybenzyl α-D-glucopyranose-6-yl)-1-(2-chloroethyl)-1-nitrosourea] | 0 to 10 | 0 | 0 to 10 | 0 | 120 | 3.62 | 4/6 | > 420 | 33.1 | 360 |  |  |  |  |  |  | 
CCN(C[C@H]1O[C@H](OCC(C)C)[C@H](O)[C@@H](O)[C@H]1O)C(=O)N(CCCl)N=O [Compound 108, 3-ethyl-3-(isobutyl α-D-galactopyranose-6-yl)-1-(2-chloroethyl)-1-nitrosourea] |  |  |  |  | 130 | 4.24 | 3/6 | > 320 | 30.7 | 390 | 0 to 10 | 7.8 | 0 to 10 | 0 |  |  | 
CCCCO[C@H]1O[C@H](CN(CCOCCO)C(=O)N(CCCl)N=O)[C@@H](O)[C@H](O)[C@H]1O [Compound 12, 3-[2-(2-hydroxyethoxy)ethyl]-3-(n-butyl α-D-glucopyranose-6-yl)-1-(2-chloroethyl)-1-nitrosourea] | 0 to 10 | 0 | 0 to 10 | 0 | 170 | 2.85 | 6/6 | > 700 | 59.6 | 505 |  |  |  |  |  |  | 
COCCCN(C[C@H]1O[C@H](OCC(C)C)[C@@H](O)[C@@H](O)[C@H]1O)C(=O)N(CCCl)N=O [Compound 146, 3-(3-methoxy-n-propyl)-3-(isobutyl α-D-talopyranose-6-yl)-1-(2-chloroethyl)-1-nitrosourea] | 0 to 10 | 0 | 0 to 10 | 0 | 180 | 3.19 | 5/6 | > 620 | 56.4 | 595 |  |  |  |  |  |  | 
CC(C)(C)CN(C[C@H]1O[C@H](OCC2CCCO2)[C@H](O)[C@@H](O)[C@@H]1O)C(=O)N(CCCl)N=O (stereo partly drawn) [Compound 188, 3-neopentyl-3-(tetrahydrofurfuryl α-D-glucopyranose-6-yl)-1-(2-chloroethyl)-1-nitrosourea] | 0 to 10 | 0 | 0 to 10 | 0 | 170 | 2.72 | 6/6 | > 700 | 62.5 | 550 |  |  |  |  |  |  | 
CCCN(C(=O)N(CCCl)N=O)C1C(CO)OC(OCC(C)C)C(O)C1O [Compound 90, 3-n-propyl-3-(isobutyl α-D-glucopyranose-4-yl)-1-(2-chloroethyl)-1-nitrosourea] |  |  |  |  | 100 | 3.07 | 3/6 | > 350 | 32.6 | 325 |  |  |  |  |  |  | 
CO[C@H]1O[C@H](CO)[C@@H](O)[C@H](O)[C@H]1NC(=O)N(CCCl)N=O [Compound 2MCαG, 3-(methyl α-D-glucopyranose-2-yl)-1-(2-chloroethyl)-1-nitrosourea, reference compound] |  |  |  |  | 15.2 | 1.15 | 5/6 | > 625 | 13.2 | 46 |  |  |  |  |  |  | 
3-(2-methoxyethyl)-3-(1-methoxyethyl α-D-glucopyranose-3-yl)-1-(2-chloroethyl)-1-nitrosourea [Compound 80] |  |  |  |  |  |  | 5/6 | > 625 | 48.0 |  |  |  |  |  | 200 | 4.17 | 640
CCN(C(=O)N(CCCl)N=O)[C@H]1[C@@H](OCC(C)C)O[C@H](CO)[C@H](O)[C@@H]1O [Compound 121, 3-ethyl-3-(isobutyl α-D-galactopyranose-2-yl)-1-(2-chloroethyl)-1-nitrosourea] |  |  |  |  | 160 | 5.99 | 3/6 | > 350 | 26.7 | 480 |  |  |  |  |  |  | 
CC(C)CCN(C(=O)N(CCCl)N=O)[C@H]1[C@@H](O)[C@@H](CO)O[C@H](OCC(C)C)[C@@H]1O [Compound 127, 3-isoamyl-3-(isobutyl α-D-galactopyranose-3-yl)-1-(2-chloroethyl)-1-nitrosourea] |  |  |  |  | 200 | 6.56 | 3/6 | > 340 | 30.5 | 600 |  |  |  |  |  |  | 
COC(C)CN(C[C@H]1O[C@H](OC2CCCCC2)[C@H](O)[C@@H](O)[C@H]1O)C(=O)N(CCCl)N=O (stereo partly drawn) [Compound 103, 3-(2-methoxy-n-propyl)-3-(cyclohexyl α-D-galactopyranose-6-yl)-1-(2-chloroethyl)-1-nitrosourea] |  |  |  |  | 200 | 3.63 | 5/6 | > 625 | 55.1 | 685 |  |  |  |  |  |  | 
COCC(C)N(C[C@H]1O[C@H](OC2CCCC2)[C@H](O)[C@@H](O)[C@@H]1O)C(=O)N(CCCl)N=O (stereo partly drawn) [Compound 172, 3-(1-methy-2-methoxyethyl)-3-(cyclopentyl α-D-glucopyranose-6-yl)-1-(2-chloroethyl)-1-nitrosourea] |  |  |  |  | 180 | 2.67 | 6/6 | > 700 | 67.3 | 600 |  |  |  |  |  |  | 
CC(C)CO[C@H]1O[C@H](CN(Cc2ccco2)C(=O)N(CCCl)N=O)[C@@H](O)[C@H](O)[C@H]1O [Compound 24, 3-furfuryl-3-(isobutyl α-D-glucopyranose-6-yl)-1-(2-chloroethyl)-1-nitrosourea] |  |  |  |  | 180 | 3.1 | 5/6 | > 620 | 58.1 | 555 |  |  |  |  |  |  | 
